In patent US10472358B2, “1H-pyrrolo[2,3-c]pyridin-7(6H)-ones and pyrazolo[3,4-c]pyridin-7(6H)-ones as inhibitors of BET proteins” (Incyte Corporation, priority 2014, dated 2019) one finds IC50 data, which are given here for 11 molecules.

One assay deals with KMS.12.BM cells. In words: KMS.12.BM cell viability assay (Cell Titer-GLO, ATP quantitation). It is filed as cell-based. As to conditions: KMS-12-BM, 72 h; human myeloma cells, 3 days, concentration required for 50% cell death. The procedure:
Example B1: KMS.12.BM Cell Viability Assay
KMS.12.BM cell line (human myeloma) was purchased from JCRB (Osaka, Japan) and maintained in RPMI with 10% FBS culture medium. To measure the cytotoxic activity of the compounds through ATP quantitation, the KMS.12.BM cells are plated in the RPMI culture medium at 5000 cells/well/per 100 μL into a 96-well polystyrene clear black tissue culture plate (Greiner-bio-one through VWR, NJ), in the presence or absence of a concentration range of test compounds. After 3 days, […] Cell Titer-GLO Luminescent (Promega, Madison, Wis.) cell culture agent is added to each well for 10 minutes at room temperature to stabilize the luminescent signal. This determines the number of viable cells in culture based on quantitation of the ATP present, which signals the presence of metabolically active cells. Luminescence is measured with the Top Count 384 (Packard Bioscience through Perkin Elmer, Boston, Mass.). Compound inhibition is determined relative to cells cultured with no drug and the IC50 is reported as the compound concentration required for 50% cell death.
By IC50 is commonly meant the concentration that inhibits the measured activity by half. Regarding `CC(C)C1Oc2c(cc(C(N)=O)cc2-c2cn(C)c(=O)c3[nH]ccc23)NC1=O` (centres unmarked) [Example 41, 2-isopropyl-8-(6-methyl-7-oxo-6,7-dihydro-1H-pyrrolo[2,3-c]pyridin-4-yl)-3-oxo-3,4-dihydro-2H-1,4-benzoxazine-6-carboxamide], the half-inhibitory concentration (IC50) is at most 1000 nM.

As for `CC(C)C1Oc2c(-c3cn(C)c(=O)c4[nH]ccc34)cc(S(=O)(=O)C(C)C)cc2N(C)C1=O` (centres unmarked) [Example 56, 2-isopropyl-6-(isopropylsulfonyl)-4-methyl-8-(6-methyl-7-oxo-6,7-dihydro-1H-pyrrolo[2,3-c]pyridin-4-yl)-2H-1,4-benzoxazin-3(4H)-one], the IC50 is at most 1000 nM.

`CN1C(=O)C(C)(C)Oc2c(-c3cn(C)c(=O)c4[nH]ccc34)cc(S(=O)(=O)N3CCCCC3)cc21` [Example 73, 2,2,4-trimethyl-8-(6-methyl-7-oxo-6,7-dihydro-1H-pyrrolo[2,3-c]pyridin-4-yl)-6-(piperidin-1-ylsulfonyl)-2H-1,4-benzoxazin-3(4H)-one] showed an IC50 of at most 1000 nM.

`CC(C)C1Oc2c(cc(C(=O)N(C)C)cc2-c2cn(C)c(=O)c3[nH]ccc23)NC1=O` (centres unmarked) [Example 34, 2-isopropyl-N,N-dimethyl-8-(6-methyl-7-oxo-6,7-dihydro-1H-pyrrolo[2,3-c]pyridin-4-yl)-3-oxo-3,4-dihydro-2H-1,4-benzoxazine-6-carboxamide] had an IC50 of at most 1000 nM.

Turning to `Cn1cc(-c2cccc3c2NC(C)(C)C(=O)N3)c2cc[nH]c2c1=O` [Example 32, 3,3-dimethyl-5-(6-methyl-7-oxo-6,7-dihydro-1H-pyrrolo[2,3-c]pyridin-4-yl)-3,4-dihydroquinoxalin-2(1H)-one], the IC50 is at most 1000 nM.

For `Cn1cc(-c2cc(S(C)(=O)=O)cc3c2NC2(CCCC2)C(=O)N3)c2cc[nH]c2c1=O` [Example 59, 8′-(6-methyl-7-oxo-6,7-dihydro-1H-pyrrolo[2,3-c]pyridin-4-yl)-6′-(methylsulfonyl)-1′,4′-dihydro-3′H-spiro[cyclopentane-1,2′-quinoxalin]-3′-one], the IC50 was at most 1000 nM.

`CCS(=O)(=O)c1cc(-c2cn(C)c(=O)c3[nH]ccc23)c2c(c1)N(C)C(=O)C(C)(C)O2` [Example 76, 6-(ethylsulfonyl)-2,2,4-trimethyl-8-(6-methyl-7-oxo-6,7-dihydro-1H-pyrrolo[2,3-c]pyridin-4-yl)-2H-1,4-benzoxazin-3(4H)-one] displayed an IC50 of at most 1000 nM.

Molecule `COc1cc(-c2cn(C)c(=O)c3[nH]ccc23)c2c(c1)N(Cc1ccncc1)C(=O)C(C(C)C)O2` (centres unmarked) [Example 15, 2-isopropyl-6-methoxy-8-(6-methyl-7-oxo-6,7-dihydro-1H-pyrrolo[2,3-c]pyridin-4-yl)-4-(pyridin-4-ylmethyl)-2H-1,4-benzoxazin-3(4H)-one] registered an IC50 of at most 1000 nM.

`CC(C)C1Oc2c(cc(C(=O)N3CCOCC3)cc2-c2cn(C)c(=O)c3[nH]ccc23)NC1=O` (centres unmarked) [Example 33, 2-isopropyl-8-(6-methyl-7-oxo-6,7-dihydro-1H-pyrrolo[2,3-c]pyridin-4-yl)-6-(morpholin-4-ylcarbonyl)-2H-1,4-benzoxazin-3(4H)-one] had an IC50 of at most 1000 nM.

The same assay, now with this note: human myeloma cells, 3 days, concentration required for 50% cell death.
As for `COc1cc2c(c(-c3cn(C)c(=O)c4[nH]ccc34)c1)OC(c1ccccc1)C(=O)N2` (single isomer, unassigned) [Example 24B, 6-methoxy-8-(6-methyl-7-oxo-6,7-dihydro-1H-pyrrolo[2,3-c]pyridin-4-yl)-2-phenyl-2H-1,4-benzoxazin-3(4H)-one], the IC50 was at most 1000 nM.

As to `COc1cc2c(c(-c3cn(C)c(=O)c4[nH]ncc34)c1)OC(C1CCCC1)C(=O)N2` (single isomer, unassigned) [Example 42B, 2-cyclopentyl-6-methoxy-8-(6-methyl-7-oxo-6,7-dihydro-1H-pyrazolo[3,4-c]pyridin-4-yl)-2H-1,4-benzoxazin-3(4H)-one], the IC50 was at most 1000 nM.
